# From ChEMBL document CHEMBL3045450, “Studies on characteristics of ATPase activity of cardiac myosin in the presence of daunorubicin” (Med Chem Res, 2009)
# Legend:
# Format in all cases: tissue-based, Heart left ventricle
# [1] = Inhibition of Sus scrofa (pig) left ventricle Ca2+-ATPase activity of cardiac myosin assessed as inorganic phosphorus released from protein at 0.05 uM after 30 min; conditions: 0.5 h
# [2] = Inhibition of Sus scrofa (pig) left ventricle Ca2+-ATPase activity of cardiac myosin assessed as inorganic phosphorus released from protein at 0.4 uM in presence of Mg2+
# [3] = Inhibition of Sus scrofa (pig) left ventricle Ca2+-ATPase activity of cardiac myosin assessed as inorganic phosphorus released from protein at 0.2 uM after 1 hr
# [4] = Inhibition of Sus scrofa (pig) left ventricle Ca2+-ATPase activity of cardiac myosin assessed as inorganic phosphorus released from protein at 0.2 uM after 10 min
# [5] = Inhibition of Sus scrofa (pig) left ventricle Ca2+-ATPase activity of cardiac myosin assessed as inorganic phosphorus released from protein at > 0.1 uM after 10 min
# [6] = Inhibition of Sus scrofa (pig) left ventricle Ca2+-ATPase activity of cardiac myosin assessed as inorganic phosphorus released from protein at 0.05 to 0.4 uM
# [7] = Inhibition of Sus scrofa (pig) left ventricle Ca2+-ATPase activity of cardiac myosin assessed as residual activity at 0.8 uM
# [8] = Inhibition of Sus scrofa (pig) left ventricle Ca2+-ATPase activity of cardiac myosin assessed as inorganic phosphorus released from protein at 0.2 to 1 uM; conditions: TDE = time-dependent effect
smiles,measurement,setting,value
COc1cccc2c1C(=O)c1c(O)c3c(c(O)c1C2=O)C[C@@](O)(C(C)=O)C[C@@H]3O[C@H]1C[C@H](N)[C@H](O)[C@H](C)O1 [DAUNORUBICIN],inhibition (INH),[1],Active
same,inhibition (INH),[2],Not Active
same,inhibition (INH),[3],Active
same,inhibition (INH),[4],Active
same,inhibition (INH),[5],Active
same,inhibition (INH),[6],Active
same,Activity,[7],0.12 U
same,inhibition (INH),[8],tde
